Measured values reported in PubChem BioAssay (NCI).
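48-hour exposure; five concentrations; linearly interpolated endpoints. GI50 = concentration required for 50% inhibition of growth. TGI marks complete inhibition of growth.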

Assays:
Assay in all cases: NCI-60 cell line screen, 48 h
A549 NSCLC = system: A549 NSCLC
COLO 205 colon = system: COLO 205 colon
HOP-62 NSCLC = system: HOP-62 NSCLC
KM12 colon = system: KM12 colon
SK-MEL-5 melanoma = system: SK-MEL-5 melanoma
SNB-75 CNS = system: SNB-75 CNS
TK-10 renal = system: TK-10 renal
UACC-62 melanoma = system: UACC-62 melanoma
NCI/ADR-RES ovarian = system: NCI/ADR-RES ovarian
DU-145 prostate = system: DU-145 prostate

| Structure (SMILES) | TGI (A549 NSCLC) [µM] | TGI (COLO 205 colon) [µM] | TGI (HOP-62 NSCLC) [µM] | TGI (KM12 colon) [µM] | TGI (SK-MEL-5 melanoma) [µM] | TGI (SNB-75 CNS) [µM] | TGI (TK-10 renal) [µM] | TGI (UACC-62 melanoma) [µM] | TGI (NCI/ADR-RES ovarian) [µM] | GI50 (A549 NSCLC) [µM] | GI50 (COLO 205 colon) [µM] | GI50 (DU-145 prostate) [µM] | TGI (DU-145 prostate) [µM] | GI50 (HOP-62 NSCLC) [µM] | GI50 (KM12 colon) [µM] | GI50 (NCI/ADR-RES ovarian) [µM] | GI50 (SK-MEL-5 melanoma) [µM] | GI50 (TK-10 renal) [µM] | GI50 (UACC-62 melanoma) [µM] | GI50 (SNB-75 CNS) [µM] |
| --- | --- | --- | --- | --- | --- | --- | --- | --- | --- | --- | --- | --- | --- | --- | --- | --- | --- | --- | --- | --- |
| Nc1c(-c2ccc(-c3c(N)[n+]([O-])c4ccccc4[n+]3[O-])cc2)[n+]([O-])c2ccccc2[n+]1[O-] | 51.9 | 29.6 | 32.3 | 23.6 | 23.6 | 21.9 | 32.1 | 24.3 | – | – | – | – | – | – | – | – | – | – | – | – |
| CC(=O)Oc1cc(OC(C)=O)c(OC(C)=O)c2c1CC1C(=O)C3(CCc4ccccc43)C(=O)C1C2 (stereo unspecified) | 44.6 | 37.9 | 50.8 | – | – | 16.7 | 31.7 | 31.3 | – | – | – | – | – | – | – | – | – | – | – | – |
| CC(=O)NC1C(OCc2ccccc2)OC(COC(=O)CCCCCCCCCCNC(=O)CCNc2ccc([N+](=O)[O-])c3[nH]c4ccc(O)cc4c(=O)c23)C(O)C1OC(C)C(=O)N[C@H](C(=O)N[C@H](CCC(=O)O)C(N)=O)C(C)C (stereo partly specified) | > 100 | > 100 | > 100 | > 100 | > 100 | 64.8 | > 100 | > 100 | – | – | – | – | – | – | – | – | – | – | – | – |
| COc1ccccc1NC(=O)C(=O)C(C#N)CC(C)(C)C=O (stereo unspecified) | > 100 | – | > 100 | > 100 | > 100 | > 100 | > 100 | > 100 | > 100 | – | – | – | – | – | – | – | – | – | – | – |
| O=C1OC(=O)C2C1C1(c3ccccc3)OC2(c2ccccc2)c2c(Br)c(Br)c(Br)c(Br)c21 (stereo unspecified) | > 100 | > 100 | > 100 | > 100 | > 100 | > 100 | > 100 | > 100 | – | – | – | – | – | – | – | – | – | – | – | – |
| COc1cc2c(cc1OC)-c1c(c3ccc([N+](=O)[O-])cc3c(=O)n1CCCBr)C2=O | > 100 | > 100 | > 100 | > 100 | 23.7 | – | > 100 | 75.4 | > 100 | 28.9 | > 100 | 24.5 | > 100 | 20.7 | 29.8 | 5.91 | 1.72 | > 100 | 2.83 | – |
| OCC1C2C=CC(O2)[C@H]1CO (stereo partly specified) | > 100 | > 100 | > 100 | > 100 | > 100 | > 100 | > 100 | > 100 | – | – | – | – | – | – | – | – | – | – | – | – |
| C/C(=N\O)c1ccc(Nc2cc(-c3ccccc3)nc3c(O)cccc23)cc1 | 31 | 42.6 | 26.6 | 21.4 | – | 31.8 | 29.8 | 27.1 | 35.5 | 10.2 | 20.7 | 13.5 | 28.5 | 12.9 | 4.06 | 8.54 | – | 12 | 13.4 | 16.3 |
| CC/C(=C(/c1ccc(Cl)cc1)c1ccc(OCCCN(C)C)cc1)c1ccc(OC)cc1 | 10.7 | 1.77 | 15.7 | 10.1 | – | 12.3 | 13 | 2.5 | 16.3 | 3.88 | 0.915 | 3.48 | 10.1 | 7.76 | 2.55 | 7.27 | – | 6.23 | 1.14 | 6.02 |
| COC(=O)C1=CCS(=O)(=O)C1 | > 100 | > 100 | > 100 | > 100 | > 100 | > 100 | > 100 | > 100 | – | – | – | – | – | – | – | – | – | – | – | – |
| O=c1cc(/C=C/c2ccccc2)c2ccc(O/C(=C\c3ccccc3)c3nc4ccccc4c(=O)o3)cc2o1 | > 100 | 73.8 | 84.7 | > 100 | 41 | – | > 100 | > 100 | – | – | – | – | – | – | – | – | – | – | – | – |
| CCC1(O)CC(c2ccccc2)N(C)C(c2ccccc2)C1 (stereo unspecified) | > 100 | > 100 | > 100 | > 100 | > 100 | > 100 | > 100 | > 100 | – | – | – | – | – | – | – | – | – | – | – | – |
| OC1/C(=C/c2ccccc2)CNC/C1=C\c1ccccc1 (stereo unspecified) | > 100 | > 100 | > 100 | > 100 | > 100 | > 100 | > 100 | > 100 | – | – | – | – | – | – | – | – | – | – | – | – |
| NCCCSCC(=O)O | > 100 | > 100 | – | > 100 | > 100 | > 100 | > 100 | > 100 | – | – | – | – | – | – | – | – | – | – | – | – |
| COc1cc(C2C(C(=O)Nc3ccccc3C)=C(C)NC(C)=C2C(=O)Nc2ccccc2C)ccc1O | > 100 | > 100 | > 100 | > 100 | > 100 | > 100 | > 100 | > 100 | – | – | – | – | – | – | – | – | – | – | – | – |
